Reference: ChEMBL document CHEMBL5724696, “Autophagy assay results for EUbOPEN Chemogenomics Library” (2024)
Several values for one entry are separate records, joined by “and”; a condition that tells them apart may be missing. Equal values may be shown once.

Assays:
U2OS [1] = test: (§1) Here: values are normalized to the positive (DMSO; basel flux = defined as 100% suppression) and negative (250nM Torin1; mTOR inhibitor; maximal inducer of autophagy defined as 0% suppression) control compounds and represented as % of ER-phagy suppression. […] The impact of autophagy induction on cells is complex and depends on the affected target. […] Of note, treatment concentrations may be sub-optimal for specific compounds, leading to false negative annotations.; type: functional, Homo sapiens; details: Compound Concentration 1 uM, Culturing Media DMEM, 1 % Penicillin/Streptomycin, 10% Fetal bovin serum Add-On: blasticidin, Screening Media Control DMEM, 10% Fetal bovin serum Add-On: 1 µg/ml Doxycyclin, Screening Media Samples DMEM
U2OS [2] = test: as §1; type: functional, Homo sapiens; details: Compound Concentration 1 uM, Culturing Media DMEM, 1 % Penicillin/Streptomycin, 10% Fetal bovin serum Add-On: blasticidin, Screening Media Control DMEM, 10% Fetal bovin serum Add-On: 1 µg/ml Doxycyclin, Screening Media Samples DMEM; remark: listed apart in the source
[3] = Timepoint 12 hours, 10% Fetal bovin serum Add-On: 1 µg/ml Doxycyclin 250nM Torin1
[4] = Timepoint 24 hours, 10% Fetal bovin serum Add-On: 1 µg/ml Doxycyclin 250nM Torin1
[5] = Timepoint 36 hours, 10% Fetal bovin serum Add-On: 1 µg/ml Doxycyclin 250nM Torin1
[6] = Timepoint 60 hours, 10% Fetal bovin serum Add-On: 1 µg/ml Doxycyclin 250nM Torin1
[7] = Timepoint 54 hours, 10% Fetal bovin serum Add-On: 1 µg/ml Doxycyclin 250nM Torin1
[8] = Timepoint 12 hours, 10% Fetal bovin serum Add-On: 1 µg/ml Doxycyclin 250nM Torin1, 12 h, 1 µM
[9] = Timepoint 24 hours, 10% Fetal bovin serum Add-On: 1 µg/ml Doxycyclin 250nM Torin1, 24 h, 1 µM
[10] = Timepoint 36 hours, 10% Fetal bovin serum Add-On: 1 µg/ml Doxycyclin 250nM Torin1, 36 h, 1 µM
[11] = Timepoint 60 hours, 10% Fetal bovin serum Add-On: 1 µg/ml Doxycyclin 250nM Torin1, 60 h, 1 µM
[12] = Timepoint 54 hours, 10% Fetal bovin serum Add-On: 1 µg/ml Doxycyclin 250nM Torin1, 54 h, 1 µM

| Compound | ER-phagy suppression (U2OS [1]; [3]) | ER-phagy suppression (U2OS [1]; [4]) | ER-phagy suppression (U2OS [1]; [5]) | ER-phagy suppression (U2OS [1]; [6]) | ER-phagy suppression (U2OS [2]; [3]) | ER-phagy suppression (U2OS [2]; [4]) | ER-phagy suppression (U2OS [2]; [5]) | ER-phagy suppression (U2OS [2]; [7]) | ER-phagy suppression (U2OS [1]; [8]) | ER-phagy suppression (U2OS [1]; [9]) | ER-phagy suppression (U2OS [1]; [10]) | ER-phagy suppression (U2OS [1]; [11]) | ER-phagy suppression (U2OS [2]; [8]) | ER-phagy suppression (U2OS [2]; [9]) | ER-phagy suppression (U2OS [2]; [10]) | ER-phagy suppression (U2OS [2]; [12]) |
| --- | --- | --- | --- | --- | --- | --- | --- | --- | --- | --- | --- | --- | --- | --- | --- | --- |
| CC(=O)Nc1ccc2ccn(-c3cc(NC4CC4)n4ncc(C#N)c4n3)c2c1 | 13.0338% | 48.9829% | 66.3165% | 75.9257% | 46.1231% | 56.6622% | 75.9855% | 85.4784% | – | – | – | – | – | – | – | – |
| COc1cc(Nc2nc(C)cc(-c3cnn4nc(OC)ccc34)n2)cc(C(F)(F)F)c1 | -18.8933% | -32.8701% | -15.1622% | -1.233% | -17.1977% | -30.7% | -31.3882% | -33.2663% | – | – | – | – | – | – | – | – |
| CCC(=O)Nc1cc(Nc2cc(NC3CC3)n3ncc(C#N)c3n2)ccc1C | – | – | – | – | – | – | – | – | 25.0893% and 12.0462% | 43.9531% and 30.6203% | 57.0471% and 46.34% | 65.9791% and 54.7573% | 67.8996% and 33.7182% | 72.4419% and 40.8117% | 80.6378% and 60.338% | 84.9565% and 68.6565% |
| Cc1ccc(N(C)c2cc(N(C)C3CC3)n3ncc(C#N)c3n2)cc1NC(=O)C1CC1 | 27.2035% | 42.1045% | 58.091% | 60.0735% | 38.742% | 47.4692% | 65.8045% | 75.1314% | – | – | – | – | – | – | – | – |
| CN(C)C/C=C/C(=O)Nc1cc2c(Nc3ccc(F)c(Cl)c3)ncnc2cc1O[C@H]1CCOC1 [AFATINIB] | 20.6411% | 25.6226% | 22.4767% | 26.9133% | -20.9199% | -7.924% | -3.193% | 3.819% | – | – | – | – | – | – | – | – |
| COc1cc(Nc2ncc3c(n2)-c2ccc(Cl)cc2C(c2c(F)cccc2OC)=NC3)ccc1C(=O)O [ALISERTIB] | – | – | – | – | – | – | – | – | 32.5772% and 15.1943% | 46.3416% and 31.463% | 37.5206% and 17.8935% | 42.3508% and 18.9115% | 17.2717% and 22.6318% | 12.1028% and 15.999% | -4.94% and 1.582% | 5.417% and 8.819% |
| Cc1cnc(-c2cc(Cl)ccc2F)cc1-n1c(=O)n(CC(N)=O)c2ccccc21 [Al11] | -12.5733% | -18.3016% | -21.1778% | -20.9921% | -9.163% | -26.2915% | -35.1418% | -38.7834% | – | – | – | – | – | – | – | – |
| Cc1cc(NC(=O)c2cccc(S(F)(F)(F)(F)F)c2)cc(-n2ccn3nc(-c4cccnc4)cc23)c1 [BAY-309] | 7.299% | 1.781% | 3.502% | -2.656% | 7.105% | -8.178% | -9.412% | -2.397% | – | – | – | – | – | – | – | – |
| CC1=C(C#N)C(c2ccc3[nH]nc(C)c3c2)C(C#N)=C(C)N1 [BAY-474] | -4.1838% | 7.362% | 15.2848% | 16.6513% | -13.4419% | -18.7669% | -19.5327% | -10.8689% | – | – | – | – | – | – | – | – |
| Cc1cc(C)c(-n2ccn3nc(-c4cccnc4)cc23)cc1NC(=O)c1cc(C#N)cc(S(F)(F)(F)(F)F)c1 [BAY-826] | 10.7254% | 6.3786% | 7.428% | 6.537% | 21.4229% | 9.146% | 4.6% | 19.8518% | – | – | – | – | – | – | – | – |
| CC1=C(C#N)[C@@H](c2ccc3[nH]nc(C)c3c2)C(C#N)=C(c2ccc(Cl)cc2)N1 [BAY-827] | -21.2779% | -26.9283% | -30.4241% | -34.9366% | -1.516% | -21.7023% | -24.9956% | -14.7052% | – | – | – | – | – | – | – | – |
| CNCc1ccc(-c2cc(-c3nc(-c4ccc(S(=O)(=O)C(C)C)cc4)cnc3N)on2)cc1 [BERZOSERTIB] | 117.5% | 96.408% | 85.8575% | 85.0285% | 54.7938% | 32.6309% | 31.7276% | 38.9692% | – | – | – | – | – | – | – | – |
| C[C@@H]1COCCN1c1cc(C2([S@](C)(=N)=O)CC2)nc(-c2cc[nH]c3nccc2-3)n1 [CERALASERTIB] | -20.381% | -14.6462% | -13.688% | -10.6655% | 5.203% | -10.6428% | -11.7869% | -16.7098% | – | – | – | – | – | – | – | – |
| CNC(=O)c1ccc(Nc2ncc(C(F)(F)F)c(NCc3nccnc3N(C)S(C)(=O)=O)n2)cc1 [DEFACTINIB] | – | – | – | – | – | – | – | – | -10.5841% and -8.687% | – | -22.8017% and 1.862% | -7.812% and 1.51% | 6.334% and 17.6982% | -6.042% and 9.811% | -8.211% and 10.8271% | – |
| CCN(CCO)CCCOc1ccc2c(Nc3cc(CC(=O)Nc4cccc(F)c4)[nH]n3)ncnc2c1 [DEFOSBARASERTIB] | – | – | – | – | – | – | – | – | – | – | – | 14.0476% and -1.761% | -1.417% and 3.579% | -12.3988% and -4.272% | -12.8875% and -11.7769% | -17.4995% and -20.4042% |
| CN1CCN(Cc2ccc(Nc3ncc(Cl)c(Nc4ccccc4S(=O)(=O)N(C)C)n3)cc2)CC1 [DUBERMATINIB] | -20.0629% | 4.178% | 12.5384% | 29.2244% | -2.878% | -1.86% | 7.295% | 21.9101% | – | – | – | – | – | – | – | – |
| Cn1cc(C2=C(c3cn(C4CCN(Cc5ccccn5)CC4)c4ccccc34)C(=O)NC2=O)c2ccccc21 [ENZASTAURIN] | 35.0144% | 19.4915% | 15.6229% | 9.495% | 5.0599% | -2.39% | -11.3748% | -3.56% | – | – | – | – | – | – | – | – |
| C[C@H](NC(=O)Nc1cc2[nH]ncc2c(CO)n1)c1ccccn1 [ERKi-NC] | -23.4889% | -22.8439% | -26.5362% | -20.3879% | 16.3207% | -4.124% | -11.6627% | -9.3851% | – | – | – | – | – | – | – | – |
